Reference: US11506654B2, “Method, composition and kit for screening ALK or ROS-1 kinase inhibitor” (KOREA INSTITUTE OF SCIENCE AND TECHNOLOGY, priority 2018, dated 2022)

Key:
Format in all cases: cell-based
HCC-78 cells = assay: WST-1 assay, cell growth inhibitory effect on lung carcinoma cell line (HCC-78); conditions: for growth rate of HCC-78 cells (control group = 100%): 1 μM; for inhibition of growth of HCC-78 cells (in words): 1 μM, 24, 48 and 72 hours, Student's t-test, p<0.05
Description: Specifically, HCC-78 lung cancer cells deposited under an accession number of KCTC13642BP on Sep. […] At this time, DMSO (dimethyl sulfoxide) was added to a control group in an amount to be 0.01% of the total medium, 1 μM doxorubicin was added to a positive control group, and then these control group and positive control group were cultured for 24, 48, and 72 hours, respectively. In addition, the experiment was conducted using an A549 cell line instead of the HCC cell line as a negative control group. The A549 cell line is a kRAS mutant cell line and is also a cell line which is not involved in the overexpression of ALK and ROS-1.
When each of the culture times passed after drug treatment, the WST-1 reagent was added to each medium in an amount to be 10% of the medium, the cells were cultured for 1 hour, and then the absorbance of cells was measured at 470 nm by using an ELISA instrument.

[1] = system: MCF-7 breast cancer cells; assay: MTT assay, cell viability of breast cancer cell line (MCF-7); conditions: 1 μM, 72 hours
Description: Specifically, MCF-7 breast cancer cells deposited under an accession number of KCTC13643BP on Sep. […] At this time, DMSO (dimethyl sulfoxide) was added to a control group in an amount to be 0.01% of the total medium, 1 μM paclitaxel was added to a positive control group, and then these control group and positive control group were cultured for 72 hours.
When each of the culture times passed after drug treatment, the supernatant of each medium was removed, the MTT reagent was added to the fresh medium so as to be 0.5 mg/ml, the cells were cultured for 3 hours, then the supernatant was removed again, and then the medium was reconstituted with 100 μL of DMSO. Thereafter, the absorbance of cells was measured at 590 nm by using an ELISA instrument.

HCC-78 cell line = assay: Change in metabolites in HCC-78 cell line after ALK/ROS-1 kinase inhibitor treatment, UHPLC-MS; conditions: HCC-78, 1 μM, 24 hours, n=5
Description: HCC-78 lung cancer cells were cultured in a 5% carbon dioxide cell incubator at a temperature of 37° C. using a RPMI medium containing 10% fetal bovine serum and 1% antibiotic. […] At this time, as a control group, DMSO (dimethyl sulfoxide) was added to the cells in an amount to be 0.01% of the total medium, and the cells were cultured for 24 hours. Each cell was cultured in 5 cell dishes for each group so that the total number of experiments for each group was 5 (n=5).
After the culture time of 24 hours had elapsed, the medium was removed, and the cells were washed two times with PBS (phosphate buffered saline). The cells were then acquired from the culture dish using a cell scraper, put in a tube, and stored at −80° C.
(§1) Thereafter, a process in which the mixed solution was frozen using liquid nitrogen, dissolved in water at room temperature, and then sonicated for 30 seconds was repeated three times to destroy the cells. Thereafter, the resultant mixed solution was subjected to centrifugation at 14000 rpm for 10 minutes, and only the supernatant was separated from this. At this time, DNA quantitation was conducted in order to correct the cell volume of the intracellular fluid extract acquired according to the series of procedures. DNA quantitation was conducted by mixing the extract with water at a ratio of 1:3, putting 5 μL of the mixture in a cuvette, and measuring the quantity at 260 nm by using a spectrophotometer Nano-MD of SHINKO CO., LTD.
(§2) Specifically, 10 μL of the acquired sample was injected into the ultra-high-performance liquid chromatography system-mass spectrometer, and the temperature of the injector was maintained at 4° C. […]
(§3) Specifically, Excel raw data attained by conducting calibration and peak alignment using the compound discovery software of Thermo Fisher Scientific Inc. was extracted from the chromatogram. […] The extracted file was first divided by the internal standard substance and corrected using DNA quantitation of cells, and statistical processing was conducted using SIMCA software. […]

MCF-7 cell line = assay: Change in metabolites in MCF-7 cell line after crizotinib treatment, UHPLC-MS; conditions: MCF-7, 1 μM, 12 hours, n=5
Description: MCF-7 breast cancer cells were cultured in a 5% carbon dioxide cell incubator at a temperature of 37° C. using a DMEM medium containing 10% fetal bovine serum and 1% antibiotic. […] At this time, as a control group, DMSO was added to the cells in an amount to be 0.01% of the total medium, and the cells were cultured for 12 hours. Each cell was cultured in 5 cell dishes for each group so that the total number of experiments for each group was 5 (n=5).
After the culture time of 12 hours had elapsed, the medium was removed, and the cells were washed two times with PBS. The cells were then acquired from the culture dish using a cell scraper, put in a tube, and stored at −80° C.
as §1, §2, §3

COc1cccc2c1C(=O)c1c(O)c3c(c(O)c1C2=O)C[C@@](O)(C(=O)CO)C[C@@H]3O[C@H]1C[C@H](N)[C@H](O)[C@H](C)O1 [doxorubicin]
growth rate of HCC-78 cells (control group = 100%) (HCC-78 cells; 24 hours after treatment): 57.65%

CC(=O)O[C@H]1C(=O)[C@@]2(C)[C@H]([C@H](OC(=O)c3ccccc3)[C@]3(O)C[C@H](OC(=O)[C@H](O)[C@@H](NC(=O)c4ccccc4)c4ccccc4)C(C)=C1C3(C)C)[C@]1(OC(C)=O)CO[C@@H]1C[C@@H]2O [paclitaxel]
cell growth rate of MCF-7 as compared with control group [1]: 46.86%

Cc1cc(Nc2ncc(Cl)c(Nc3ccccc3S(=O)(=O)C(C)C)n2)c(OC(C)C)cc1C1CCNCC1 [ceritinib]
AMP increase as compared with control group (HCC-78 cell line): 188.21% | adenosine decrease as compared with control group (HCC-78 cell line): 95.31% | cAMP decrease as compared with control group (HCC-78 cell line): 66.78% | inhibition of growth of HCC-78 cells (in words) (HCC-78 cells): significantly inhibited, particularly time dependently inhibited the growth of HCC-78 cells | growth rate of HCC-78 cells (control group = 100%) (HCC-78 cells; 24 hours after treatment): 73.73% | growth rate of HCC-78 cells (control group = 100%) (HCC-78 cells; 48 hours after treatment): 37.17% | growth rate of HCC-78 cells (control group = 100%) (HCC-78 cells; 72 hours after treatment): 17.99%

C[C@@H](Oc1cc(-c2cnn(C3CCNCC3)c2)cnc1N)c1c(Cl)ccc(F)c1Cl [crizotinib]
AMP increase (MCF-7 cell line): 82.91% | adenosine decrease (MCF-7 cell line): 32.07% | cAMP decrease (MCF-7 cell line): 28.6% | inhibition of growth of HCC-78 cells (in words) (HCC-78 cells): significantly inhibited, particularly time dependently inhibited the growth of HCC-78 cells

CC(C)(C)c1nc(-c2cccc(NS(=O)(=O)c3c(F)cccc3F)c2F)c(-c2ccnc(N)n2)s1 [dabrafenib]
inhibition of cell growth of MCF-7 cell line (in words) ([1]; Student's t-test, p value <0.05): 5 kinds of kinase inhibitors except dabrafenib significantly inhibited
